Earlier results, collected in patent publication US20210401895A1, “TREATMENT OF A DISEASE OF THE GASTROINTESTINAL TRACT WITH LIVE BIOTHERAPEUTICS” (Progenity, Inc., priority 2017, published 2021).

Assays:
[1] = test system: Propionibacterium acnes and Staphylococcus epidermidis; settings: particularly Propionibacterium acnes and Staphylococcus epidermidis
[2] = test system: malignant or hyperactive melanocytes
[3] = test system: dermatophytes, yeasts, moulds and other fungi; settings: broad spectrum of dermatophytes

SMILES	effects on aerobic and anaerobic organisms [1]	effect on malignant or hyperactive melanocytes [2]	activity against fungi [3]
O=C(O)CCCCCCCC(=O)O [Azelaic acid]	antibacterial effects	cytotoxic effect	–
Cc1cc(C2CCCCC2)n(O)c(=O)c1 [Ciclopirox]	–	–	fungicidal, fungistatic and sporicidal activity
